Calls of active or inactive are those of the source. No cut-off for these calls is given here.
Assays:
Cacopsylla melanoneura [1] = assay: Insecticidal activity against adult of Cacopsylla melanoneura in apple plant assessed as reduction of progeny per female at 187.5 g/ha treated for 14 days measured after 7 days; type: functional, organism-based
Cacopsylla melanoneura [2] = assay: Insecticidal activity against adult of Cacopsylla melanoneura in apple plant assessed as overwintered female mortality at 187.5 g/ha treated for 14 days measured after 3 days relative to control; type: functional
Cacopsylla melanoneura [3] = assay: Insecticidal activity against adult of Cacopsylla melanoneura in apple plant assessed as overwintered female mortality at 187.5 g/ha treated for 14 days measured after 1 day relative to control; type: functional
Cacopsylla melanoneura [4] = assay: Insecticidal activity against adult of Cacopsylla melanoneura in apple plant assessed as reduction of progeny per female at 187.5 g/ha treated for 7 days measured after 7 days; type: functional, organism-based
Cacopsylla melanoneura [5] = assay: Insecticidal activity against adult of Cacopsylla melanoneura in apple plant assessed as overwintered female mortality at 187.5 g/ha treated for 7 days measured after 3 days relative to control; type: functional
Cacopsylla melanoneura [6] = assay: Insecticidal activity against adult of Cacopsylla melanoneura in apple plant assessed as overwintered female mortality at 187.5 g/ha treated for 7 days measured after 1 day relative to control; type: functional
Cacopsylla melanoneura [7] = assay: Insecticidal activity against adult of Cacopsylla melanoneura in apple plant assessed as reduction of progeny per female at 187.5 g/ha treated for 1 hr measured after 7 days; type: functional, organism-based
Cacopsylla melanoneura [8] = assay: Insecticidal activity against adult of Cacopsylla melanoneura in apple plant assessed as overwintered female mortality at 187.5 g/ha treated for 1 hr measured after 3 days relative to control; type: functional
Cacopsylla melanoneura [9] = assay: Insecticidal activity against adult of Cacopsylla melanoneura in apple plant assessed as overwintered female mortality at 187.5 g/ha treated for 1 hr measured after 1 day relative to control; type: functional
Cacopsylla melanoneura [10] = assay: Insecticidal activity against young stage of Cacopsylla melanoneura in apple plant assessed as mortality at 187.5 g/ha treated for 14 days measured after 7 days relative to control; type: functional
Cacopsylla melanoneura [11] = assay: Insecticidal activity against young stage of Cacopsylla melanoneura in apple plant assessed as mortality at 187.5 g/ha treated for 7 days measured after 7 days relative to control; type: functional
Cacopsylla melanoneura [12] = assay: Insecticidal activity against young stage of Cacopsylla melanoneura in apple plant assessed as mortality at 187.5 g/ha treated for 1 hr measured after 7 days relative to control; type: functional
Cacopsylla melanoneura [13] = assay: Insecticidal activity against adult of Cacopsylla melanoneura in apple plant assessed as reduction of progeny per female at 787.5 g/ha treated for 14 days measured after 7 days; type: functional, organism-based
Cacopsylla melanoneura [14] = assay: Insecticidal activity against adult of Cacopsylla melanoneura in apple plant assessed as overwintered female mortality at 787.5 g/ha treated for 14 days measured after 3 days relative to control; type: functional
Cacopsylla melanoneura [15] = assay: Insecticidal activity against adult of Cacopsylla melanoneura in apple plant assessed as overwintered female mortality at 787.5 g/ha treated for 14 days measured after 1 day relative to control; type: functional
Cacopsylla melanoneura [16] = assay: Insecticidal activity against adult of Cacopsylla melanoneura in apple plant assessed as reduction of progeny per female at 787.5 g/ha treated for 7 days measured after 7 days; type: functional, organism-based
Cacopsylla melanoneura [17] = assay: Insecticidal activity against adult of Cacopsylla melanoneura in apple plant assessed as overwintered female mortality at 787.5 g/ha treated for 7 days measured after 3 days relative to control; type: functional
Cacopsylla melanoneura [18] = assay: Insecticidal activity against adult of Cacopsylla melanoneura in apple plant assessed as overwintered female mortality at 787.5 g/ha treated for 7 days measured after 1 day relative to control; type: functional
Cacopsylla melanoneura [19] = assay: Insecticidal activity against adult of Cacopsylla melanoneura in apple plant assessed as reduction of progeny per female at 787.5 g/ha treated for 1 hr measured after 7 days; type: functional, organism-based
Cacopsylla melanoneura [20] = assay: Insecticidal activity against adult of Cacopsylla melanoneura in apple plant assessed as overwintered female mortality at 787.5 g/ha treated for 1 hr measured after 3 days relative to control; type: functional
Cacopsylla melanoneura [21] = assay: Insecticidal activity against adult of Cacopsylla melanoneura in apple plant assessed as overwintered female mortality at 787.5 g/ha treated for 1 hr measured after 1 day relative to control; type: functional
Cacopsylla melanoneura [22] = assay: Insecticidal activity against young stage of Cacopsylla melanoneura in apple plant assessed as mortality at 787.5 g/ha treated for 14 days measured after 7 days relative to control; type: functional
Cacopsylla melanoneura [23] = assay: Insecticidal activity against young stage of Cacopsylla melanoneura in apple plant assessed as mortality at 787.5 g/ha treated for 7 days measured after 7 days relative to control; type: functional
Cacopsylla melanoneura [24] = assay: Insecticidal activity against young stage of Cacopsylla melanoneura in apple plant assessed as mortality at 787.5 g/ha treated for 1 hr measured after 7 days relative to control; type: functional
Cacopsylla melanoneura [25] = assay: Insecticidal activity against young stage of Cacopsylla melanoneura in apple plant assessed as mortality at 135 g/ha treated for 14 days measured after 7 days relative to control; type: functional
Cacopsylla melanoneura [26] = assay: Insecticidal activity against young stage of Cacopsylla melanoneura in apple plant assessed as mortality at 135 g/ha treated for 7 days measured after 7 days relative to control; type: functional
Cacopsylla melanoneura [27] = assay: Insecticidal activity against adult of Cacopsylla melanoneura in apple plant assessed as overwintered female mortality at 135 g/ha treated for 1 hr measured after 3 days relative to control; type: functional
Cacopsylla melanoneura [28] = assay: Insecticidal activity against adult of Cacopsylla melanoneura in apple plant assessed as overwintered female mortality at 135 g/ha treated for 1 hr measured after 1 day relative to control; type: functional
Cacopsylla melanoneura [29] = assay: Insecticidal activity against adult of Cacopsylla melanoneura in apple plant assessed as reduction of progeny per female at 135 g/ha treated for 14 days measured after 7 days; type: functional, organism-based
Cacopsylla melanoneura [30] = assay: Insecticidal activity against adult of Cacopsylla melanoneura in apple plant assessed as overwintered female mortality at 135 g/ha treated for 14 days measured after 3 days relative to control; type: functional
Cacopsylla melanoneura [31] = assay: Insecticidal activity against adult of Cacopsylla melanoneura in apple plant assessed as overwintered female mortality at 135 g/ha treated for 14 days measured after 1 day relative to control; type: functional
Cacopsylla melanoneura [32] = assay: Insecticidal activity against adult of Cacopsylla melanoneura in apple plant assessed as reduction of progeny per female at 135 g/ha treated for 7 days measured after 7 days; type: functional, organism-based
Cacopsylla melanoneura [33] = assay: Insecticidal activity against adult of Cacopsylla melanoneura in apple plant assessed as overwintered female mortality at 135 g/ha treated for 7 days measured after 3 days relative to control; type: functional
Cacopsylla melanoneura [34] = assay: Insecticidal activity against adult of Cacopsylla melanoneura in apple plant assessed as overwintered female mortality at 135 g/ha treated for 7 days measured after 1 day relative to control; type: functional
Cacopsylla melanoneura [35] = assay: Insecticidal activity against adult of Cacopsylla melanoneura in apple plant assessed as reduction of progeny per female at 135 g/ha treated for 1 hr measured after 7 days; type: functional, organism-based
Cacopsylla melanoneura [36] = assay: Insecticidal activity against young stage of Cacopsylla melanoneura in apple plant assessed as mortality at 135 g/ha treated for 1 hr measured after 7 days relative to control; type: functional

CCOC(=O)NCCOc1ccc(Oc2ccccc2)cc1 [PHENOXYCARB]
Activity (Cacopsylla melanoneura [1]): Active
Activity (Cacopsylla melanoneura [2]): 53.3%
Activity (Cacopsylla melanoneura [3]): 23.3%
Activity (Cacopsylla melanoneura [4]): Active
Activity (Cacopsylla melanoneura [5]): 60%
Activity (Cacopsylla melanoneura [6]): 40%
Activity (Cacopsylla melanoneura [7]): Active
Activity (Cacopsylla melanoneura [8]): 16.7%
Activity (Cacopsylla melanoneura [9]): 3.3%
Activity (Cacopsylla melanoneura [10]): 100%
Activity (Cacopsylla melanoneura [11]): 91.7%
Activity (Cacopsylla melanoneura [12]): 93.3%

CCOP(=S)(OCC)Oc1nc(Cl)c(Cl)cc1Cl [CHLORPYRIFOS]
Activity (Cacopsylla melanoneura [13]): Active
Activity (Cacopsylla melanoneura [14]): 93.3%
Activity (Cacopsylla melanoneura [15]): 93.3%
Activity (Cacopsylla melanoneura [16]): Active
Activity (Cacopsylla melanoneura [17]): 100%
Activity (Cacopsylla melanoneura [18]): 100%
Activity (Cacopsylla melanoneura [19]): Active
Activity (Cacopsylla melanoneura [20]): 100%
Activity (Cacopsylla melanoneura [21]): 100%
Activity (Cacopsylla melanoneura [22]): 100%
Activity (Cacopsylla melanoneura [23]): 100%
Activity (Cacopsylla melanoneura [24]): 98.3%

CCOc1ccc(C(C)(C)COCc2cccc(Oc3ccccc3)c2)cc1 [ETOFENPROX]
Activity (Cacopsylla melanoneura [25]): 100%
Activity (Cacopsylla melanoneura [26]): 100%
Activity (Cacopsylla melanoneura [27]): 100%
Activity (Cacopsylla melanoneura [28]): 93.3%
Activity (Cacopsylla melanoneura [29]): Active
Activity (Cacopsylla melanoneura [30]): 100%
Activity (Cacopsylla melanoneura [31]): 100%
Activity (Cacopsylla melanoneura [32]): Active
Activity (Cacopsylla melanoneura [33]): 93.3%
Activity (Cacopsylla melanoneura [34]): 93.3%
Activity (Cacopsylla melanoneura [35]): Active
Activity (Cacopsylla melanoneura [36]): 98.3%

Source: ChEMBL document CHEMBL3044636, “Effectiveness of five insecticides for the control of adults and young stages of Cacopsylla melanoneura (Förster) (Hemiptera: Psyllidae) in a semi-field trial” (2010)
